Measurements reported in PubChem BioAssay (NCI).
“And” between values parts separate entries of the source, which are not always exact repeats. Equal values may be shown once.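 Test compounds were applied to cells in 96-well plates for 48 hours at 5 doses. GI50 = concentration required for 50% inhibition of growth. The concentration for full growth arrest is given as TGI.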

Experiments:
Assay in all cases: NCI tumour cell line growth inhibition, 48 h
BT-549 breast = test system: BT-549 breast
CAKI-1 renal = test system: CAKI-1 renal
LOX IMVI melanoma = test system: LOX IMVI melanoma
MCF7 breast = test system: MCF7 breast
MOLT-4 leukemia = test system: MOLT-4 leukemia
RPMI-8226 leukemia = test system: RPMI-8226 leukemia
T-47D breast = test system: T-47D breast
UACC-257 melanoma = test system: UACC-257 melanoma
LXFL 529 NSCLC = test system: LXFL 529 NSCLC
M19-MEL melanoma = test system: M19-MEL melanoma

SMILES | GI50 (BT-549 breast) | TGI (BT-549 breast) | GI50 (CAKI-1 renal) | TGI (CAKI-1 renal) | GI50 (LOX IMVI melanoma) | TGI (LOX IMVI melanoma) | GI50 (MCF7 breast) [µM] | TGI (MCF7 breast) | GI50 (MOLT-4 leukemia) | TGI (MOLT-4 leukemia) | GI50 (RPMI-8226 leukemia) | TGI (RPMI-8226 leukemia) [µM] | GI50 (T-47D breast) | TGI (T-47D breast) | GI50 (UACC-257 melanoma) | TGI (UACC-257 melanoma) | TGI (LXFL 529 NSCLC) [µM] | TGI (M19-MEL melanoma) [µM]
COc1cc2nccc(Oc3ccc(NC(=O)Nc4cc(C)on4)c(Cl)c3)c2cc1OC | 4.16 µM and 4.99 µM | 13.4 µM and > 10 µM | 2.58 µM and 2.25 µM | 7.67 µM and > 10 µM | 2.21 µM and 2.19 µM | 8.14 µM and > 10 µM | 3.35 | 56.2 µM and > 10 µM | 2.12 µM and 1.86 µM | 44.1 µM and > 10 µM | 9.83 µM and 4.33 µM | > 55.7 | 2.98 µM and 3.35 µM | 23.2 µM and > 10 µM | 3.73 µM and 5.54 µM | 33.9 µM and > 10 µM | – | –
CC(CN(C)C)Oc1ccccc1NC1=C(Cl)C(=O)C(Nc2ccccc2OC(C)CN(C)C)=C(Cl)C1=O (configuration not stated) | 1.62 µM | 2.98 µM | 1.34 µM | 2.72 µM | 0.183 µM | 0.377 µM | 0.169 | 0.41 µM | 0.195 µM | 0.51 µM | 0.372 µM | 1.95 | 0.175 µM | 0.455 µM | 1.16 µM | 2.53 µM | – | –
Cc1ccc(C(=O)/C(=C\c2ccc([N+](=O)[O-])cc2)S(=O)Cc2ccc(Cl)cc2)cc1 (configuration not stated) | 1.73 µM | 3.22 µM | 1.81 µM | 4.04 µM | 1.55 µM | 3.04 µM | 1.38 | 3.68 µM | 1.2 µM | 6.14 µM | 1.29 µM | 4.62 | 1.51 µM | 3.37 µM | 1.89 µM | 3.89 µM | – | –
CC1=C(O)/C(=C/C(C)CCC/C(C)=C/C=C/C(C)CCCc2ccoc2)OC1=O (configuration not stated) | – | – | – | > 100 µM | – | > 100 µM | – | – | – | – | – | – | – | – | – | 66.3 µM | > 100 | > 100
N#CC1(C#N)C2C=CC(c3coc4cccc2c34)C1(C#N)C#N (configuration not stated) | – | – | – | – | – | 28.7 µM | – | – | – | 6.35 µM | – | 19.9 | – | – | – | 23.1 µM | 21.2 | 8.86
CN(CC(=O)Nc1nc2ccccc2[nH]1)S(=O)(=O)c1ccc(Cl)cc1 | > 100 µM | > 100 µM | > 100 µM | > 100 µM | > 100 µM | > 100 µM | > 100 | > 100 µM | > 100 µM | > 100 µM | > 100 µM | > 100 | > 100 µM | > 100 µM | > 100 µM | > 100 µM | – | –
N#Cc1c(N)nc(N2CCOCC2)c(C#N)c1-c1ccccn1 | > 100 µM | > 100 µM | > 100 µM | > 100 µM | > 100 µM | > 100 µM | > 100 | > 100 µM | > 100 µM | > 100 µM | > 50.3 µM | > 100 | 48.4 µM | > 100 µM | > 100 µM | > 100 µM | – | –
Oc1ccc(C2c3ccccc3Oc3ccccc32)c2cccnc12 | 3.15 µM | > 100 µM | 0.568 µM | > 100 µM | 0.778 µM | > 100 µM | 1.74 | > 100 µM | 1.96 µM | > 100 µM | 1.7 µM | > 100 | 2.95 µM | > 100 µM | 2.76 µM | > 100 µM | – | –
